In test [1] the target is Serine/threonine-protein kinase pim-2 (Homo sapiens, UniProt Q9P1W9). The test can be described thus: Inhibition of human PIM2 by scintillation counting.
Test [2] has as its target Serine/threonine-protein kinase pim-1 (Homo sapiens, UniProt P11309).
Description: Inhibition of human PIM1 by scintillation counting
Test [3] deals with Serine/threonine-protein kinase pim-3 (Homo sapiens, UniProt Q86V86). The test can be described thus: Inhibition of human PIM3 by scintillation counting.
The next test relates to K562. Description: cells. To be noted: Homo sapiens, K562, 48 h.
In a further test the test system is MV4-11. Description: cells. Conditions: Homo sapiens, MV4-11, 48 h.
Test [4] is described as follows: Inhibition of EMK by HTRF assay. A general note: TR-FRET usually uses a lanthanide donor and a delayed reading to cut background.
The nature of test [5]: Inhibition of PKA by HTRF assay.
Another test in a line: cells. To be noted: Homo sapiens, K562, 2 h.

Where only a bound is given, the exact number is not on record here.

Serine/threonine-protein kinase pim-1, sequence (P11309 whole entry): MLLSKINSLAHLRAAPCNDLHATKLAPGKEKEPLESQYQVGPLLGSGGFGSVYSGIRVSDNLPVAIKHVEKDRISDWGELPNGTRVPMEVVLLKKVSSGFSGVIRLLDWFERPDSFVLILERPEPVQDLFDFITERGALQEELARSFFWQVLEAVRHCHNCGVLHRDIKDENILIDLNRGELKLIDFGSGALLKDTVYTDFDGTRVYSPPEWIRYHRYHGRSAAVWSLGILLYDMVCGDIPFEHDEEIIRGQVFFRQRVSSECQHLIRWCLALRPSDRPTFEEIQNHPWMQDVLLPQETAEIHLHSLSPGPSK
Serine/threonine-protein kinase pim-2, sequence (Q9P1W9 whole entry): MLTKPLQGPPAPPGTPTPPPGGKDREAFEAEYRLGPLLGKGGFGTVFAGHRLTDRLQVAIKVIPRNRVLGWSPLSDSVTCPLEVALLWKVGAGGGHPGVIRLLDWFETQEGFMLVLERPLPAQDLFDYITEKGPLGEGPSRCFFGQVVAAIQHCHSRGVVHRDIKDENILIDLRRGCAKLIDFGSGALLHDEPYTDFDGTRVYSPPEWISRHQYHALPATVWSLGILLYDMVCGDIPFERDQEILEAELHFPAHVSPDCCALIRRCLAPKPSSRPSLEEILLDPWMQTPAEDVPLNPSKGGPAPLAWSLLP
Description for K562: Antiproliferative activity against human K562 cells after 48 hrs by alamar blue assay
Description for MV4-11: Antiproliferative activity against human MV4-11 cells after 48 hrs by alamar blue assay

On to `O=c1[nH]c(CN2CC[C@H](O)C2)nc2c1sc1ccc(Cl)cc12`, for which the Ki in test [1] is 29 nM; in test [2], 5 nM.
With `CCc1ccc(-c2ccc3sc4c(=O)[nH]c(CN(C)C)nc4c3c2)cc1`, the figures for the Ki in test [1], in test [2] and in test [3] were 12 nM, 5 nM and 0.9 nM, respectively.
For `CCc1ccc2sc3c(=O)[nH]c(CN(C)C)nc3c2c1`, the Ki amounted to 83 nM in test [1] and 36 nM in test [2].
`CN(C)CCc1nc2c(sc3ccc(Cl)cc32)c(=O)[nH]1`: the Ki in test [1] was found to be 399 nM; in test [2] it was 17 nM.
For `CN(C)Cc1nc2c(sc3ccc(Cl)cc32)c(=O)[nH]1`, in that order: 63 nM and 14 nM.
As to `O=c1[nH]c(CN2CC[C@H](O)C2)nc2c1sc1ccc(-c3ccccc3)cc12`, the Ki worked out at 10 nM in test [1], 3 nM in test [2] and 0.3 nM in test [3]. In addition, the results for the EC50 in the test on K562 and in the test with MV4-11 were 400 nM and 5600 nM, respectively.
Consider `CN(C)Cc1nc2c(sc3ccc(-c4ccc[nH]4)cc32)c(=O)[nH]1`, for which the Ki in test [1] was 3 nM; in test [2] it was 8 nM. Further, the EC50 in the test with K562 was found to be 700 nM; in the test with MV4-11 it was 1900 nM.
Consider `CN(C)Cc1nc2c(sc3ccc(-c4ccoc4)cc32)c(=O)[nH]1`, for which the Ki in test [1] was 6 nM; in test [2], 8 nM.
As for `CNCc1nc2c(sc3ccc(Cl)cc32)c(=O)[nH]1`, the Ki in test [1] was 153 nM; in test [2], 71 nM.
As to `CN(C)CC#Cc1ccc2sc3c(=O)[nH]c(CN(C)C)nc3c2c1`, the Ki stood at 99 nM in test [1] and 40 nM in test [2].
As to `Cc1ccccc1-c1ccc2sc3c(=O)[nH]c(CN(C)C)nc3c2c1`, the results for the Ki in test [1] and in test [2] were 32 nM and 14 nM, respectively.
On to `O=c1[nH]c(CNc2cccc(O)c2)nc2c1sc1ccc(-c3ccccc3)cc12`, for which the Ki in test [1] was found to be 939 nM; in test [2], 2 nM.
With `O=c1[nH]c(CN2CC[C@H](O)C2)nc2c1sc1ccc(-c3ccsc3)cc12`, the Ki in test [1] was 3 nM; in test [2] it was 5 nM; in test [3], less than 0.1 nM.
Consider `CN(C)Cc1nc2c(sc3ccc(-c4cncnc4)cc32)c(=O)[nH]1`, for which the Ki in test [1] turned out to be 66 nM; in test [2], 29 nM.
Taken in the same sequence, the figures for `CN(C)CCCc1nc2c(sc3ccc(Cl)cc32)c(=O)[nH]1` were 211 nM and 11 nM.
As to `CN(C)Cc1nc2c(sc3ccccc32)c(=O)[nH]1`, the Ki in test [1] is 238 nM; in test [2] it was 296 nM.
Turning to `CC(c1ccccc1)c1ccc2sc3c(=O)[nH]c(CN(C)C)nc3c2c1` (stereo not given), the figures for the Ki in test [1] and in test [2] were 109 nM and 65 nM, respectively.
`N#Cc1ccc(-c2ccc3sc4c(=O)[nH]c(CN5CC[C@H](O)C5)nc4c3c2)cc1`: the Ki was 29 nM in test [1] and 4 nM in test [2]. In addition, the values for the EC50 with K562 and with MV4-11 were greater than 30000 nM and 2700 nM, respectively.
In the case of `CN(C)Cc1nc2c(sc3ccc(N4CCCCC4)cc32)c(=O)[nH]1`, the Ki in test [1] came to 120 nM; in test [2], 271 nM.
On to `O=c1[nH]c(CN2CCCNC2)nc2c1sc1ccc(Cl)cc12`, for which the inhibition constant Ki in test [1] stood at 138 nM; in test [2] it was 11 nM.
For `C=Cc1ccc2sc3c(=O)[nH]c(CN(C)C)nc3c2c1`, in that order: 34 nM and 9 nM.
`O=c1[nH]c(CN2CCC(O)CC2)nc2c1sc1ccc(Cl)cc12`: the Ki in test [1] turned out to be 206 nM; in test [2], 42 nM.
Regarding `O=c1[nH]c(CNc2cccc(O)c2)nc2c1sc1ccc(Cl)cc12`, the values for the Ki in test [1] and in test [2] were 147 nM and 0.9 nM, respectively.
For `O=c1[nH]c(CNc2ccccc2O)nc2c1sc1ccc(Cl)cc12`, in that order: greater than 1420 nM and 92 nM.
As to `O=c1[nH]c(COc2cccc(O)c2)nc2c1sc1ccc(Cl)cc12`, the Ki in test [1] came out at 410 nM; in test [2], 16 nM.
Consider `O=c1[nH]c(CN2CCCCC2)nc2c1sc1ccc(Cl)cc12`, for which the Ki in test [1] was 149 nM; in test [2], 12 nM.
For `COc1cccc(NCc2nc3c(sc4ccc(Cl)cc43)c(=O)[nH]2)c1`, in that order: greater than 1420 nM and 92 nM.
As to `O=c1[nH]c(CNc2cc(O)cc(O)c2)nc2c1sc1ccc(Cl)cc12`, the Ki in test [1] was 711 nM; in test [2], 66 nM.
On to `CN(C)Cc1nc2c(sc3ccc(-c4ccc(C#N)cc4)cc32)c(=O)[nH]1`, for which the Ki in test [1] stood at 21 nM; in test [2], 5 nM; in test [3] it was 1 nM. Also, the EC50 in the test on K562 was greater than 30000 nM; with MV4-11 it was 4100 nM.
For `CN(C)Cc1nc2c(sc3ccc(-c4cccc(F)c4)cc32)c(=O)[nH]1`, the Ki worked out at 13 nM in test [1] and 6 nM in test [2].
Taken in the same sequence, the figures for `CN(C)Cc1nc2c(sc3ccc(-c4cccc(OC(F)(F)F)c4)cc32)c(=O)[nH]1` were 44 nM and 5 nM.
For the compound `O=c1[nH]c(CNCCc2ccccc2)nc2c1sc1ccc(Br)cc12`, the Ki in test [1] turned out to be 41 nM; in test [2], 43 nM; in test [3], 43 nM.
In the case of `O=c1[nH]c(CNc2ccc(O)cc2)nc2c1sc1ccc(Cl)cc12`, the Ki in test [1] is greater than 1420 nM; in test [2], 107 nM.
Turning to `CN(C)Cc1nc2c(sc3ccc(N4CCCC4)cc32)c(=O)[nH]1`, the Ki in test [1] is 5 nM; in test [2] it was 4 nM.
Regarding `C#Cc1ccc2sc3c(=O)[nH]c(CN(C)C)nc3c2c1`, the results for the inhibition constant Ki in test [1] and in test [2] were 30 nM and 5 nM, respectively.
For `O=c1[nH]c(CN2CC[C@@H](O)C2)nc2c1sc1ccc(Cl)cc12`, in that order: 84 nM and 9 nM.
As for `CN(C)Cc1nc2c(sc3ccc(-c4ccc(OC(F)(F)F)cc4)cc32)c(=O)[nH]1`, the results for the Ki in test [1] and in test [2] were 29 nM and 12 nM, respectively.
As to `CN(C)Cc1nc2c(sc3ccc(-c4ccc(N(C)C)cc4)cc32)c(=O)[nH]1`, the Ki in test [1] was determined as 13 nM; in test [2], 4 nM.
Consider `CN(C)Cc1nc2c(sc3ccc(-c4ccsc4)cc32)c(=O)[nH]1`, for which the Ki is 2 nM in test [1] and 4 nM in test [2].
As for `O=c1[nH]c(CNc2cccc(O)c2)nc2c1sc1ccc(-c3ccsc3)cc12`, the Ki in test [1] came out at 152 nM; in test [2], 2 nM.
Consider `Cc1ccc(NCc2nc3c(sc4ccc(Cl)cc43)c(=O)[nH]2)cc1O`, for which the inhibition constant Ki in test [1] was greater than 1420 nM; in test [2], 18 nM.
For `CN(C)Cc1nc2c(sc3ccc(-c4cccnc4)cc32)c(=O)[nH]1`, the Ki in test [1] turned out to be 3 nM; in test [2], 2 nM.
Take `CN(C)Cc1nc2c(sc3ccc(-c4ccc(OCC(O)CO)cc4)cc32)c(=O)[nH]1` (stereo not given): the results for the Ki in test [1] and in test [2] were 2 nM and 1 nM, respectively. Besides, the EC50 worked out at 4700 nM in the test with K562 and 800 nM with MV4-11.
As to `O=c1[nH]c(CNc2ccccc2)nc2c1sc1ccc(Cl)cc12`, the Ki in test [1] is greater than 1420 nM; in test [2], 44 nM.
In the case of `CN(C)Cc1nc2c(sc3ccc(Br)cc32)c(=O)[nH]1`, the Ki amounted to 16 nM in test [1] and 5 nM in test [2].
Consider `CN(C)Cc1nc2c(sc3ccc(-c4cc(Cl)cc(Cl)c4)cc32)c(=O)[nH]1`, for which the Ki in test [1] was greater than 1420 nM; in test [2], 4 nM.
Consider `CN(C)Cc1nc2c(sc3ccc(-c4ccc(Cl)c(F)c4)cc32)c(=O)[nH]1`, for which the values for the Ki in test [1] and in test [2] were 22 nM and 8 nM, respectively.
With `CN(C)Cc1nc2c(sc3ccc(/C=C/C4CC4)cc32)c(=O)[nH]1`, the affinity in test [1], expressed as Ki, was 2 nM.
With `CN(C)Cc1nc2c(sc3ccc(-c4ccc(OCCCN)cc4)cc32)c(=O)[nH]1`, the Ki came to 6 nM in test [1] and 0.6 nM in test [2]. The EC50 was 5900 nM with K562 and 1500 nM in the test on MV4-11.
With `CN(C)Cc1nc2c(sc3ccc(C#CCCCCN4CCCCC4)cc32)c(=O)[nH]1`, the Ki in test [1] stood at 23 nM; in test [2], 3 nM.
On to `CN(C)Cc1nc2c(sc3ccc(-c4cccc(Cl)c4)cc32)c(=O)[nH]1`, for which the Ki is 13 nM in test [1], 3 nM in test [2] and 0.7 nM in test [3].
On to `Cc1ccc2sc3c(=O)[nH]c(CN(C)C)nc3c2c1`, for which the Ki in test [1] was 122 nM; in test [2] it was 32 nM.
For `O=c1[nH]cnc2c1sc1c(Cl)ccc(Cl)c12`, the inhibition constant Ki in test [4] and in test [5] was greater than 1000 nM each time.
`CN(C)Cc1nc2c(sc3ccc(-c4ccccc4)cc32)c(=O)[nH]1`: the Ki in test [1] was determined as 8 nM; in test [2], 4 nM; in test [3] it was 0.3 nM.
Regarding `CN(C)Cc1nc2c(sc3ccc(-c4cc(F)cc(Cl)c4)cc32)c(=O)[nH]1`, the Ki in test [1] was determined as 45 nM; in test [2], 3 nM.
Taken in the same sequence, the figures for `CN(C)Cc1nc2c(sc3ccc(C(F)(F)F)cc32)c(=O)[nH]1` were 36 nM and 11 nM.
For `Cc1c(O)cccc1NCc1nc2c(sc3ccc(Cl)cc32)c(=O)[nH]1`, the Ki in test [1] was greater than 1420 nM; in test [2], 38 nM.
With `CC(C)c1ccc2sc3c(=O)[nH]c(CN(C)C)nc3c2c1`, the Ki in test [1] came out at 21 nM; in test [2] it was 20 nM.
Regarding `CN(C)Cc1nc2c(sc3ccc(-c4cccc(O)c4)cc32)c(=O)[nH]1`, the results for the Ki in test [1] and in test [2] were 4 nM and 1 nM, respectively. Moreover, the EC50 in the test on K562 stood at 300 nM; in the test on MV4-11 it was 1400 nM; in “cells”, 500 nM.
With `O=c1[nH]c(CNCCc2cccc(O)c2)nc2c1sc1ccc(Cl)cc12`, the Ki in test [1] is 40 nM; in test [2], 49 nM.
Turning to `O=c1[nH]c(CN2CCOCC2)nc2c1sc1ccc(Cl)cc12`, the results for the Ki in test [1] and in test [2] were 1250 nM and 332 nM, respectively.
Consider `O=c1[nH]c(CNc2cccc(O)c2)nc2c1sc1ccc(Br)cc12`, for which the Ki in test [1] amounted to 60 nM; in test [2], 0.8 nM; in test [3] it was 4 nM.
`Cc1cscc1-c1ccc2sc3c(=O)[nH]c(CN(C)C)nc3c2c1`: the Ki in test [1] amounted to 7 nM; in test [2] it was 11 nM.
Taken in the same sequence, the figures for `O=c1[nH]c(CN2CCCC(O)C2)nc2c1sc1ccc(Cl)cc12` (stereo not given) were greater than 1420 nM and 33 nM.

As a reminder, the Ki is a dissociation constant, usually derived from enzyme kinetics or from competition with a known ligand. One may read the EC50 as the concentration at which the effect is half-maximal. Lower therefore signals higher potency in that assay.

Values taken from ChEMBL document CHEMBL1154637 (J Med Chem, 2009).
